{"source": "patent US12077503B2", "about": "“Substituted cyclic amides and their use as herbicides” (FMC CORPORATION, priority 2015, dated 2024)", "format_in_all_cases": "in vivo", "key": {"Kochia (Kochia scoparia) [1]": {"tested_on": "Kochia (Kochia scoparia)", "assay": "Test A preemergence", "conditions": "Bassia scoparia, pre-emergence, 240 h, 0 to 100 scale where 0 is no effect and 100 is complete control, read-out: Kochia plant response rating", "method_in_brief": "(§1)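 Ratings of 0 (no effect) to 100 (complete control) come from visual comparison with untreated controls roughly 10 d after treatment. Test chemicals, formulated in a non-phytotoxic solvent mixture with surfactant, were applied either as a preemergence directed soil spray on seeded soil or postemergence to one- to two-leaf plants 2 to 10 cm tall.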"}, "[2]": {"tested_on": "barnyardgrass (Echinochloa crus-galli)", "assay": "Test A preemergence", "conditions": "Echinochloa crus-galli, pre-emergence, 240 h, 0 to 100 scale where 0 is no effect and 100 is complete control, read-out: Barnyardgrass plant response rating", "method_in_brief": "as §1"}, "[3]": {"tested_on": "giant foxtail (Setaria faberii)", "assay": "Test A preemergence", "conditions": "Setaria faberi, pre-emergence, 240 h, 0 to 100 scale where 0 is no effect and 100 is complete control, read-out: Foxtail, Giant plant response rating", "method_in_brief": "as §1"}, "[4]": {"tested_on": "pigweed (Amaranthus retroflexus)", "assay": "Test A preemergence", "conditions": "Amaranthus retroflexus, pre-emergence, 240 h, 0 to 100 scale where 0 is no effect and 100 is complete control, read-out: Pigweed plant response rating"}, "[5]": {"tested_on": "ragweed (common ragweed, Ambrosia elatior)", "assay": "Test A preemergence", "conditions": "Ambrosia artemisiifolia, pre-emergence, 240 h, 0 to 100 scale where 0 is no effect and 100 is complete control, read-out: Ragweed plant response rating", "method_in_brief": "as §1"}, "[6]": {"tested_on": "ryegrass, Italian (Italian ryegrass, Lolium multiflorum)", "assay": "Test A preemergence", "conditions": "Lolium multiflorum, pre-emergence, 240 h, 0 to 100 scale where 0 is no effect and 100 is complete control, read-out: Ryegrass, Italian plant response rating", "method_in_brief": "as §1"}, "[7]": {"tested_on": "Galium (catchweed bedstraw, Galium aparine)", "assay": "Test A postemergence", "conditions": "Galium, post-emergence, 240 h", "method_in_brief": "as §1"}, "Kochia (Kochia scoparia) [8]": {"tested_on": "Kochia (Kochia scoparia)", "assay": "Test A postemergence", "conditions": "Bassia scoparia, post-emergence, 240 h", "method_in_brief": "as §1"}, "[9]": {"tested_on": "barnyardgrass (Echinochloa crus-galli)", "assay": "Test A postemergence", "conditions": "Echinochloa crus-galli, post-emergence, 240 h", "method_in_brief": "as §1"}, "[10]": {"tested_on": "blackgrass (Alopecurus myosuroides)", "assay": "Test A postemergence", "conditions": "Alopecurus myosuroides, post-emergence, 240 h", "method_in_brief": "as §1"}, "corn (Zea mays)": {"tested_on": "corn (Zea mays)", "assay": "Test A postemergence", "conditions": "Zea mays, post-emergence, 240 h", "method_in_brief": "as §1"}, "[11]": {"tested_on": "giant foxtail (Setaria faberii)", "assay": "Test A postemergence", "conditions": "Setaria faberi, post-emergence, 240 h", "method_in_brief": "as §1"}, "[12]": {"tested_on": "pigweed (Amaranthus retroflexus)", "assay": "Test A postemergence", "conditions": "Amaranthus retroflexus, post-emergence, 240 h, 125 g ai/ha, postemergence, visual injury vs untreated controls after approx. 10 d; 0 = no effect, 100 = complete control; read-out: Pigweed plant response rating (0 to 100 scale)", "method_in_brief": "as §1"}, "[13]": {"tested_on": "ragweed (common ragweed, Ambrosia elatior)", "assay": "Test A postemergence", "conditions": "Ambrosia artemisiifolia, post-emergence, 240 h, 125 g ai/ha, postemergence, visual injury vs untreated controls after approx. 10 d; 0 = no effect, 100 = complete control; read-out: Ragweed plant response rating (0 to 100 scale)", "method_in_brief": "as §1"}, "[14]": {"tested_on": "ryegrass, Italian (Italian ryegrass, Lolium multiflorum)", "assay": "Test A postemergence", "conditions": "Lolium multiflorum, post-emergence, 240 h, 125 g ai/ha, postemergence, visual injury vs untreated controls after approx. 10 d; 0 = no effect, 100 = complete control; read-out: Ryegrass, Italian plant response rating (0 to 100 scale)", "method_in_brief": "as §1"}, "[15]": {"tested_on": "wheat (Triticum aestivum)", "assay": "Test A postemergence", "conditions": "Triticum aestivum, post-emergence, 240 h, 125 g ai/ha, postemergence, visual injury vs untreated controls after approx. 10 d; 0 = no effect, 100 = complete control; read-out: Wheat plant response rating (0 to 100 scale)", "method_in_brief": "as §1"}, "[16]": {"tested_on": "barnyardgrass (Echinochloa crus-galli)", "assay": "Test B flooded paddy test", "conditions": "Echinochloa crus-galli, 250 g ai/ha, Flood; 0 to 100 scale where 0 is no effect and 100 is complete control; read-out: Barnyardgrass plant response rating", "method_in_brief": "(§2)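 Compound goes directly into floodwater once pots are flooded 3 cm above soil, targeting plants at two leaves; the water depth is then held for the test duration. Plants sit 13–15 d in a greenhouse and are rated visually, 100 denoting complete control.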"}, "[17]": {"tested_on": "ducksalad (Heteranthera limosa)", "assay": "Test B flooded paddy test", "conditions": "Heteranthera limosa, 250 g ai/ha, Flood; 0 to 100 scale where 0 is no effect and 100 is complete control; read-out: Ducksalad plant response rating", "method_in_brief": "as §2"}, "rice (Oryra sativa)": {"tested_on": "rice (Oryra sativa)", "assay": "Test B flooded paddy test", "conditions": "Oryza sativa, 250 g ai/ha, Flood; 0 to 100 scale where 0 is no effect and 100 is complete control; read-out: Rice plant response rating", "method_in_brief": "as §2"}, "[18]": {"tested_on": "sedge, umbrella (small-flower umbrella sedge, Cyperus difformis)", "assay": "Test B flooded paddy test", "conditions": "Cyperus difformis, 250 g ai/ha, Flood; 0 to 100 scale where 0 is no effect and 100 is complete control; read-out: Sedge, Umbrella plant response rating", "method_in_brief": "as §2"}, "[19]": {"conditions": "125 g ai/ha, preemergence, approx. 10 d"}}, "data": [{"smiles": "CON1CC[C@H](c2cccc(C(F)(F)F)c2)[C@@H](C(=O)Nc2cccc(Cl)c2F)C1=O", "note": "[Compound 1171]", "values": [{"measurement": "pest or weed control at 31 g/ha", "setting": "Kochia (Kochia scoparia) [1]; 31 g ai/ha, Preemergence", "result": 0, "unit": "%"}, {"measurement": "pest or weed control at 125 g/ha", "setting": "Kochia (Kochia scoparia) [1]; [19]", "result": 30, "unit": "%"}, {"measurement": "pest or weed control at 31 g/ha", "setting": "[2]; 31 g ai/ha, Preemergence", "result": 40, "unit": "%"}, {"measurement": "pest or weed control at 125 g/ha", "setting": "[2]; [19]", "result": 80, "unit": "%"}, {"measurement": "pest or weed control at 31 g/ha", "setting": "[3]; 31 g ai/ha, Preemergence", "result": 70, "unit": "%"}, {"measurement": "pest or weed control at 125 g/ha", "setting": "[3]; [19]", "result": 90, "unit": "%"}, {"measurement": "pest or weed control at 31 g/ha", "setting": "[4]; 31 g ai/ha, Preemergence", "result": 0, "unit": "%"}, {"measurement": "pest or weed control at 125 g/ha", "setting": "[4]; [19]", "result": 40, "unit": "%"}, {"measurement": "pest or weed control at 31 g/ha", "setting": "[5]; 31 g ai/ha, Preemergence", "result": 0, "unit": "%"}, {"measurement": "pest or weed control at 125 g/ha", "setting": "[5]; [19]", "result": 0, "unit": "%"}, {"measurement": "pest or weed control at 31 g/ha", "setting": "[6]; 31 g ai/ha, Preemergence", "result": 0, "unit": "%"}, {"measurement": "pest or weed control at 125 g/ha", "setting": "[6]; [19]", "result": 60, "unit": "%"}, {"measurement": "pest or weed control at 125 g/ha", "setting": "[7]; 125 g ai/ha, postemergence, visual injury vs untreated controls after approx. 10 d, 0 = no effect, 100 = complete control, read-out: Galium plant response rating (0 to 100 scale)", "result": 0, "unit": "%"}, {"measurement": "pest or weed control at 31 g/ha", "setting": "[7]; Postemergence, 31 g ai/ha, visual injury after approx. 10 d, 0 to 100 scale, 0 no effect, 100 complete control, read-out: Plant response rating, Galium", "result": 0, "unit": "%"}, {"measurement": "pest or weed control at 125 g/ha", "setting": "Kochia (Kochia scoparia) [8]; 125 g ai/ha, postemergence, visual injury vs untreated controls after approx. 10 d, 0 = no effect, 100 = complete control, read-out: Kochia plant response rating (0 to 100 scale)", "result": 0, "unit": "%"}, {"measurement": "pest or weed control at 31 g/ha", "setting": "Kochia (Kochia scoparia) [8]; Postemergence, 31 g ai/ha, visual injury after approx. 10 d, 0 to 100 scale, 0 no effect, 100 complete control, read-out: Plant response rating, Kochia", "result": 0, "unit": "%"}, {"measurement": "pest or weed control at 125 g/ha", "setting": "[9]; 125 g ai/ha, postemergence, visual injury vs untreated controls after approx. 10 d, 0 = no effect, 100 = complete control, read-out: Barnyardgrass plant response rating (0 to 100 scale)", "result": 70, "unit": "%"}, {"measurement": "pest or weed control at 31 g/ha", "setting": "[9]; Postemergence, 31 g ai/ha, visual injury after approx. 10 d, 0 to 100 scale, 0 no effect, 100 complete control, read-out: Plant response rating, Barnyardgrass", "result": 20, "unit": "%"}, {"measurement": "pest or weed control at 125 g/ha", "setting": "[10]; 125 g ai/ha, postemergence, visual injury vs untreated controls after approx. 10 d, 0 = no effect, 100 = complete control, read-out: Blackgrass plant response rating (0 to 100 scale)", "result": 0, "unit": "%"}, {"measurement": "pest or weed control at 31 g/ha", "setting": "[10]; Postemergence, 31 g ai/ha, visual injury after approx. 10 d, 0 to 100 scale, 0 no effect, 100 complete control, read-out: Plant response rating, Blackgrass", "result": 0, "unit": "%"}, {"measurement": "plant injury at 125 g/ha", "setting": "corn (Zea mays); 125 g ai/ha, postemergence, visual injury vs untreated controls after approx. 10 d, 0 = no effect, 100 = complete control, read-out: Corn plant response rating (0 to 100 scale)", "result": 0, "unit": "%"}, {"measurement": "Corn plant response rating (crop injury, 0 = no effect, 100 = complete kill) at 31 g/ha", "setting": "corn (Zea mays); Postemergence, 31 g ai/ha, visual injury after approx. 10 d, 0 to 100 scale, 0 no effect, 100 complete control", "result": 0, "unit": "%"}, {"measurement": "pest or weed control at 125 g/ha", "setting": "[11]; 125 g ai/ha, postemergence, visual injury vs untreated controls after approx. 10 d, 0 = no effect, 100 = complete control, read-out: Foxtail, Giant plant response rating (0 to 100 scale)", "result": 60, "unit": "%"}, {"measurement": "pest or weed control at 31 g/ha", "setting": "[11]; Postemergence, 31 g ai/ha, visual injury after approx. 10 d, 0 to 100 scale, 0 no effect, 100 complete control, read-out: Plant response rating, Foxtail, Giant", "result": 30, "unit": "%"}, {"measurement": "pest or weed control at 125 g/ha", "setting": "[12]", "result": 0, "unit": "%"}, {"measurement": "pest or weed control at 125 g/ha", "setting": "[13]", "result": 0, "unit": "%"}, {"measurement": "pest or weed control at 125 g/ha", "setting": "[14]", "result": 0, "unit": "%"}, {"measurement": "plant injury at 125 g/ha", "setting": "[15]", "result": 0, "unit": "%"}, {"measurement": "pest or weed control at 250 g/ha", "setting": "[16]", "result": 30, "unit": "%"}, {"measurement": "pest or weed control at 250 g/ha", "setting": "[17]", "result": 0, "unit": "%"}, {"measurement": "pest or weed control at 250 g/ha", "setting": "rice (Oryra sativa)", "result": 0, "unit": "%"}, {"measurement": "pest or weed control at 250 g/ha", "setting": "[18]", "result": 0, "unit": "%"}]}]}
